Assay results from the NIST ThermoML archive (doi:10.1016/j.jct.2016.04.008).
± gives the expanded uncertainty stated by the source.

Details: for mass density: 100 kPa, Buoyancy - hydrostatic balance with magnetic suspension - one sinker

CCCCCCCn1cc[n+](C)c1.F[B-](F)(F)F [1-heptyl-3-methylimidazolium tetrafluoroborate]
surface tension liquid-gas [mN/m], Liquid
Details | Ring tensiometer | Willlhelmy plate method
263.76 K | 37.38 ± 0.63 | –
268.69 K | 37.21 ± 0.63 | –
273.9 K | 36.87 ± 0.62 | –
278.51 K | 36.66 ± 0.62 | –
283.18 K | – | 36.23 ± 0.11
283.21 K | 36.42 ± 0.62 | –
288.47 K | – | 35.98 ± 0.11
288.49 K | 36.15 ± 0.62 | –
293.29 K | 36.03 ± 0.62 | 35.74 ± 0.11
298.21 K | 35.76 ± 0.62 | 35.54 ± 0.11
303.1 K | 35.54 ± 0.61 | –
303.11 K | – | 35.31 ± 0.11
308.19 K | – | 35.1 ± 0.11
308.2 K | 35.18 ± 0.61 | –
313.21 K | 34.9 ± 0.61 | –
313.24 K | – | 34.82 ± 0.11
317.78 K | 34.74 ± 0.61 | –
317.81 K | – | 34.6 ± 0.11
323 K | 34.45 ± 0.6 | –
323.06 K | – | 34.33 ± 0.1
327.79 K | 34.24 ± 0.6 | –
327.8 K | – | 34.13 ± 0.1
333.01 K | 33.87 ± 0.6 | –
333.09 K | – | 33.82 ± 0.1
338.61 K | – | 33.62 ± 0.1
338.64 K | 33.54 ± 0.6 | –
342.42 K | 33.44 ± 0.6 | –
342.5 K | – | 33.39 ± 0.1
348.76 K | – | 33.17 ± 0.1
348.79 K | 33.17 ± 0.59 | –
353.93 K | 32.8 ± 0.59 | –
353.99 K | – | 32.86 ± 0.1
357.12 K | – | 32.66 ± 0.1
357.16 K | 32.47 ± 0.59 | –
364.34 K | 31.97 ± 0.59 | –
364.4 K | – | 32.34 ± 0.1

Liquid
Details | mass density [kg/m3]
263.87 K | 1147.27 ± 0.59
268.63 K | 1143.58 ± 0.59
273.63 K | 1139.44 ± 0.59
278.6 K | 1136.36 ± 0.59
283.19 K | 1133.24 ± 0.59
288.51 K | 1129.35 ± 0.59
293.3 K | 1126.02 ± 0.59
298.21 K | 1122.73 ± 0.59
303.11 K | 1119.42 ± 0.59
308.22 K | 1115.86 ± 0.59
313.23 K | 1112.13 ± 0.59
317.78 K | 1108.94 ± 0.59
322.97 K | 1105.52 ± 0.59
327.81 K | 1102.47 ± 0.59
333.04 K | 1098.48 ± 0.59
338.46 K | 1095.77 ± 0.59
342.6 K | 1092.48 ± 0.59
348.77 K | 1089.11 ± 0.59
353.97 K | 1085.93 ± 0.59
357.24 K | 1082.94 ± 0.59
364.28 K | 1078.73 ± 0.59

CCCCCn1cc[n+](C)c1.F[B-](F)(F)F [1-methyl-3-pentyl-imidazolium tetrafluoroborate]
Liquid
Details | mass density [kg/m3]
263.11 K | 1196.7 ± 0.4
268.47 K | 1193.07 ± 0.4
273.58 K | 1189.42 ± 0.4
278.77 K | 1185.81 ± 0.4
283.09 K | 1182.43 ± 0.4
288.3 K | 1178.63 ± 0.4
292.92 K | 1175.26 ± 0.4
298.19 K | 1171.74 ± 0.4
303.03 K | 1168.37 ± 0.4
308.1 K | 1164.61 ± 0.4
313 K | 1161.19 ± 0.4
318.13 K | 1157.51 ± 0.4
323.84 K | 1154.03 ± 0.4
328.48 K | 1150.65 ± 0.4
333.48 K | 1147.02 ± 0.4
338.25 K | 1143.81 ± 0.4
342.51 K | 1140.95 ± 0.4
348.51 K | 1137.46 ± 0.4
354.03 K | 1133.59 ± 0.4
358.73 K | 1130.69 ± 0.4
365.22 K | 1126.55 ± 0.4

surface tension liquid-gas [mN/m], Liquid
Details | Ring tensiometer | Willhelmy plate method
263.64 K | 43.08 ± 0.83 | –
269.34 K | 42.79 ± 0.83 | –
273.78 K | 42.67 ± 0.83 | –
278.75 K | 42.24 ± 0.82 | –
283.06 K | – | 41.81 ± 0.07
283.1 K | 42.19 ± 0.82 | –
288.31 K | 41.94 ± 0.82 | 41.58 ± 0.07
292.93 K | – | 41.36 ± 0.07
292.94 K | 41.69 ± 0.82 | –
298.2 K | 41.4 ± 0.82 | 41.1 ± 0.07
303.06 K | – | 40.86 ± 0.07
303.07 K | 41.17 ± 0.82 | –
308.07 K | 40.88 ± 0.82 | –
308.1 K | – | 40.6 ± 0.07
313.01 K | 40.64 ± 0.81 | –
313.04 K | – | 40.36 ± 0.07
318.12 K | 40.35 ± 0.81 | –
318.17 K | – | 40.07 ± 0.07
323.56 K | 40.02 ± 0.81 | –
323.62 K | – | 39.72 ± 0.07
328.29 K | 39.81 ± 0.81 | –
328.31 K | – | 39.45 ± 0.07
333.1 K | – | 39.18 ± 0.07
333.29 K | 39.49 ± 0.81 | –
338.23 K | 39.13 ± 0.8 | 38.94 ± 0.07
342.51 K | 38.95 ± 0.8 | –
342.52 K | – | 38.68 ± 0.07
348.1 K | 38.54 ± 0.8 | –
348.11 K | – | 38.42 ± 0.07
353.72 K | 38.21 ± 0.8 | –
353.84 K | – | 38.09 ± 0.07
358.24 K | 38.16 ± 0.8 | –
358.37 K | – | 37.87 ± 0.07
364.6 K | 37.6 ± 0.79 | –
364.61 K | – | 37.57 ± 0.07

CCCn1cc[n+](C)c1.F[B-](F)(F)F [1-propyl-3-methylimidazolium tetrafluoroborate]
Metastable liquid
Details | mass density [kg/m3]
263.48 K | 1263.82 ± 0.48
267.76 K | 1260.36 ± 0.48
273.92 K | 1255.4 ± 0.48
278.64 K | 1251.98 ± 0.48
283.36 K | 1248.34 ± 0.48
288.62 K | 1245.07 ± 0.48
293.07 K | 1241.48 ± 0.48
298.18 K | 1237.91 ± 0.48
303.09 K | 1234.13 ± 0.48
308.11 K | 1230.24 ± 0.47
313.13 K | 1226.49 ± 0.47
318 K | 1222.86 ± 0.47
322.91 K | 1219.26 ± 0.47
328.37 K | 1215.54 ± 0.47
333.47 K | 1211.69 ± 0.47
337.99 K | 1208.71 ± 0.47
342.79 K | 1205.15 ± 0.47
348.01 K | 1201.38 ± 0.47
353 K | 1198.22 ± 0.47
359.33 K | 1194.13 ± 0.47
363.9 K | 1190.61 ± 0.47

surface tension liquid-gas [mN/m], Metastable liquid
Details | Ring tensiometer | Willhelmy plate method
273.75 K | – | 50.71 ± 0.16
273.79 K | 51.33 ± 1 | –
278.5 K | – | 50.51 ± 0.16
278.59 K | 51.07 ± 1 | –
283.29 K | – | 50.25 ± 0.16
283.35 K | 50.8 ± 1 | –
288.51 K | – | 49.99 ± 0.16
288.6 K | 50.51 ± 1 | –
293.05 K | – | 49.65 ± 0.16
293.08 K | 50.23 ± 1 | –
298.18 K | 49.96 ± 1 | –
298.19 K | – | 49.5 ± 0.16
303.09 K | 49.6 ± 1 | 49.11 ± 0.16
308.05 K | – | 48.73 ± 0.15
308.08 K | 49.16 ± 1 | –
313.06 K | – | 48.58 ± 0.15
313.09 K | 49.02 ± 1 | –
318 K | 48.72 ± 1 | 48.32 ± 0.15
322.85 K | – | 47.95 ± 0.15
322.87 K | 48.32 ± 0.99 | –
328.24 K | – | 47.64 ± 0.15
328.31 K | 47.95 ± 0.99 | –
333.32 K | – | 47.28 ± 0.15
333.5 K | 47.54 ± 0.99 | –
338.08 K | – | 47.1 ± 0.15
338.14 K | 47.43 ± 0.99 | –
342.74 K | – | 46.86 ± 0.15
342.81 K | 46.8 ± 0.99 | –
348.07 K | 46.79 ± 0.99 | –
348.15 K | – | 46.48 ± 0.15
353.02 K | 46.07 ± 0.98 | –
353.21 K | – | 46.16 ± 0.15
358.98 K | 45.94 ± 0.98 | –
359.05 K | – | 45.89 ± 0.15
362.96 K | – | 45.51 ± 0.15
363.8 K | 45.67 ± 0.98 | –
